Test results as given in patent US20080234262A1 (Wyeth, priority 2007, published 2008).
pIC50: −log10 of the molar value.

Experiments:
prostate line LNCap = test: In vitro cell culture growth assay (MTS), LNCap; format: cell-based, human; settings: LNCap cells, three days after drug treatment;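 note: viable cell density read by absorbance at 490 nm, growth expressed as percent of vehicle-treated cells on the same plate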
PI3K = PI3K (Homo sapiens, UniProt P42336); test: Fluorescence polarization assay for PI3K; format: biochemical; settings: PI3Kα; read-out: PI3Kα IC50;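 note: PI3K kinase reaction on PIP2 with ATP, 30-60 min, product sensed by GST-GRP with red probe in fluorescence polarization (mP), controls without enzyme and at zero time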
PI3K, sequence (P42336 whole entry): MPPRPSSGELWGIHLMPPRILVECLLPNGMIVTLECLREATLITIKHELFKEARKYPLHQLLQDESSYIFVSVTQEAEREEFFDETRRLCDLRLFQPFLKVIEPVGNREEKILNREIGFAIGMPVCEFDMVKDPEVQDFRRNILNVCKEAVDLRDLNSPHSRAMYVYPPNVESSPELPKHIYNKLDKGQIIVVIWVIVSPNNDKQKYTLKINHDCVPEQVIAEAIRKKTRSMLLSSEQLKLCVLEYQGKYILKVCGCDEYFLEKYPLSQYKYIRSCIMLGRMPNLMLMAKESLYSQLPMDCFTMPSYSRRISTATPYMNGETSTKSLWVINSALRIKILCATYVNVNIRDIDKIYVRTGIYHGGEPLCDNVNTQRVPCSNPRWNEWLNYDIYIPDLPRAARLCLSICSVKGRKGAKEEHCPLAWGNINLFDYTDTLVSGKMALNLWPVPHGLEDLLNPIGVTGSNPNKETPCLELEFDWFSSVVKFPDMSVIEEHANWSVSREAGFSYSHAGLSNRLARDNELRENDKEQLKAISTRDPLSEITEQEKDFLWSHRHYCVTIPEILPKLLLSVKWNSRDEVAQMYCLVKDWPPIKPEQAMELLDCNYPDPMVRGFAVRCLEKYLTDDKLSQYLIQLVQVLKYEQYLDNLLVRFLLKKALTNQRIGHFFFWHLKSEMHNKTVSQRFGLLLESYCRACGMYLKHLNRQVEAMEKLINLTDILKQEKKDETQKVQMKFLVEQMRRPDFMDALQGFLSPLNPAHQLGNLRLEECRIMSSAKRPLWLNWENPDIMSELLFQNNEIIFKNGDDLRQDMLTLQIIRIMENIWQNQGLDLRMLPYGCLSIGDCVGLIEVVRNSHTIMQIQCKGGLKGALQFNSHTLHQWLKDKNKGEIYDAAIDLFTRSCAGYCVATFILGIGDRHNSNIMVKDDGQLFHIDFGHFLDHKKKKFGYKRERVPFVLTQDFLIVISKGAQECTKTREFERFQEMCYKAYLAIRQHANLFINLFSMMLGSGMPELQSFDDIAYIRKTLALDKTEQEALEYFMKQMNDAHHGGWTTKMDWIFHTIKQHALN
PI3K, sequence (P27986 whole entry partner): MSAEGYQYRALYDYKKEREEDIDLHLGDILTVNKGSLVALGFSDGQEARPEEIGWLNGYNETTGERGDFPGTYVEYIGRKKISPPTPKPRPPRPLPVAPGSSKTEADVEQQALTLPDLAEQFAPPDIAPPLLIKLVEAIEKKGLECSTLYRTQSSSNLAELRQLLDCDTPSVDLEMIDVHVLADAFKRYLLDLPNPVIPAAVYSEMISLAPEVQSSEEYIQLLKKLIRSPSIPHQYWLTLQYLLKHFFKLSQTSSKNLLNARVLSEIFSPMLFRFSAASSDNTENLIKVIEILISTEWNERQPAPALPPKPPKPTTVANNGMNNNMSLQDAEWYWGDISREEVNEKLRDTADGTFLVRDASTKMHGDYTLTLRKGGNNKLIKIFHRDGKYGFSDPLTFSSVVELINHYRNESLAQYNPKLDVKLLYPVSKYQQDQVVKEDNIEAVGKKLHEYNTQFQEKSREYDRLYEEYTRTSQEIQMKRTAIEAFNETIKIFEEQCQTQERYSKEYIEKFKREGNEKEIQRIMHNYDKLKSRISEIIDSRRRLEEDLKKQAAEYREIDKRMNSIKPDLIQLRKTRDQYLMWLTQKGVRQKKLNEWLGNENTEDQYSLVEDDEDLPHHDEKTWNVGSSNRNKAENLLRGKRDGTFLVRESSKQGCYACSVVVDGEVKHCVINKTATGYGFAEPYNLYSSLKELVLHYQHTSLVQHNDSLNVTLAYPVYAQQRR

breast line MDA468 = test: In vitro cell culture growth assay (MTS), MDA468; format: cell-based, human; settings: MDA468 cells, three days after drug treatment
Procedure, shortened: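 Growth measured as percent of same-plate vehicle control by MTS metabolic dye conversion (A490). Breast MDA468 and prostate LNCap cells, plated a day ahead, were exposed to compounds for 3 days.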

Compound	pIC50 (prostate line LNCap; Homo sapiens, LNCaP, 72 h)	pIC50 (PI3K)	pIC50 (breast line MDA468; Homo sapiens, 72 h)	pIC50 (prostate line LNCap; Homo sapiens, 72 h)	pIC50 (prostate line LNCap)	pIC50 (breast line MDA468)
O=C(NCCO)Nc1ccc(-c2nc(N3CCOCC3)c3cnn(C4CCN(C(=O)c5cccnc5)CC4)c3n2)cc1 [Compound 549, 1-(2-hydroxyethyl)-3-(4-{4-morpholin-4-yl-1-[1-(pyridin-3-ylcarbonyl)piperidin-4-yl]-1H-pyrazolo[3,4-d]pyrimidin-6-yl}phenyl)urea]	5.12	6.66	5.05			
c1cc2cc(-c3nc(N4CCOCC4)c4cnn(C5CCC6(CC5)OCCO6)c4n3)ccc2[nH]1 [Compound 142]	6.49	5.83	5.66			
c1cc2cc(-c3nc(N4CCOCC4)c4cnn(C5CCSCC5)c4n3)ccc2[nH]1 [Compound 171]		6.26	5.54	6.14		
CNC(=O)Nc1ccc(-c2nc(N3CCOCC3)c3cnn(C4CCN(C(=O)c5cccc(Cl)c5)CC4)c3n2)cc1 [Compound 604, 1-(4-{1-[1-(3-chlorobenzoyl)piperidin-4-yl]-4-morpholin-4-yl-1H-pyrazolo[3,4-d]pyrimidin-6-yl}phenyl)-3-methylurea]	> 7.57	7.28	7.30			
methyl [4-(1-{1-[(6-fluoropyridin-3-yl)methyl]piperidin-4-yl}-4-morpholin-4-yl-1H-pyrazolo[3,4-d]pyrimidin-6-yl)phenyl]carbamate [Compound 697]		5.92			6.05	5.22
CN1CCC(n2ncc3c(N4CCOCC4)nc(-c4ccc5[nH]ccc5c4)nc32)CC1 [Compound 124]	6.08	6.07	5.77			
O=C(NO)Nc1ccc(-c2nc(N3CCOCC3)c3cnn(C4CCN(Cc5ccccc5)CC4)c3n2)cc1 [Compound 310, 1-{4-[1-(1-benzylpiperidin-4-yl)-4-morpholin-4-yl-1H-pyrazolo[3,4-d]pyrimidin-6-yl]phenyl}-3-hydroxyurea]	7.00	6.70	5.96			
O=C(Nc1ccccc1)Nc1ccc(-c2nc(N3CCOCC3)c3cnn(C4CCN(Cc5cccnc5)CC4)c3n2)cc1 [Compound 586, 1-(4-{4-morpholin-4-yl-1-[1-(pyridin-3-ylmethyl)piperidin-4-yl]-1H-pyrazolo[3,4-d]pyrimidin-6-yl}phenyl)-3-phenylurea]	7.51	7.96	6.66			
c1ccc(-n2ncc3c(N4CCOCC4)nc(-c4cc5ccccc5[nH]4)nc32)cc1 [Compound 111, 6-(1H-indol-2-yl)-4-morpholin-4-yl-1-phenyl-1H-pyrazolo[3,4-d]pyrimidine]	4.92	6.00	4.64			
O=C(N1CCCC1)N1CCC(n2ncc3c(N4CCOCC4)nc(-c4ccc5[nH]ccc5c4)nc32)CC1 [Compound 123]	6.35	5.89	5.74			
Nc1ccc(-c2nc(N3CCOCC3)c3cnn(C4CCN(C(=O)c5cccnc5)CC4)c3n2)c(F)c1 [Compound 460, 3-fluoro-4-{4-morpholin-4-yl-1-[1-(pyridin-3-ylcarbonyl)piperidin-4-yl]-1H-pyrazolo[3,4-d]pyrimidin-6-yl}aniline]	5.31	5.39	4.85			
CNC(=O)Nc1ccc(-c2nc(N3CCOCC3)c3cnn(C4CCN(C(=O)c5cccnc5Cl)CC4)c3n2)cc1 [Compound 425, 1-[4-(1-{1-[(2-chloropyridin-3-yl)carbonyl]piperidin-4-yl}-4-morpholin-4-yl-1H-pyrazolo[3,4-d]pyrimidin-6-yl)phenyl]-3-methylurea]	7.10	7.00	6.30			
c1ccc(-n2ncc3c(N4CCOCC4)nc(-c4cc5ccccc5o4)nc32)cc1 [Compound 112]	4.82	5.72	4.22			
O=C(Nc1ccc(-c2nc(N3CCOCC3)c3cnn(C4CCN(C(=O)c5cccnc5)CC4)c3n2)cc1)Nc1ccccn1 [Compound 592, 1-(4-{4-morpholin-4-yl-1-[1-(pyridin-3-ylcarbonyl)piperidin-4-yl]-1H-pyrazolo[3,4-d]pyrimidin-6-yl}phenyl)-3-pyridin-2-ylurea]	7.02	6.59	6.15			
CN(C)CCNC(=O)c1cccc(-c2nc(N3CCOCC3)c3cnn(-c4ccccc4)c3n2)c1 [Compound 104]	5.43	6.61	5.48			
COC(=O)Nc1ccc(-c2nc(N3CCOCC3)c3cnn(C4CCNCC4)c3n2)cc1 [Compound 459, methyl [4-(4-morpholin-4-yl-1-piperidin-4-yl-1H-pyrazolo[3,4-d]pyrimidin-6-yl)phenyl]carbamate]	5.77	5.97	5.52			

Now from value to compound, other results behind:

pIC50 (prostate line LNCap; Homo sapiens, LNCaP, 72 h)	pIC50 (PI3K)	Compound	pIC50 (breast line MDA468; Homo sapiens, 72 h)	pIC50 (prostate line LNCap; Homo sapiens, 72 h)	pIC50 (prostate line LNCap)	pIC50 (breast line MDA468)
7.40	7.27	CNC(=O)Nc1ccc(-c2nc(N3CCOCC3)c3cnn(C4CCN(C(=O)OCCF)CC4)c3n2)cc1 [Compound 878, 2-fluoroethyl 4-(6-{4-[(methylcarbamoyl)amino]phenyl}-4-morpholin-4-yl-1H-pyrazolo[3,4-d]pyrimidin-1-yl)piperidine-1-carboxylate]	6.92			
6.65	6.71	CNC(=O)Nc1ccc(-c2nc(N3CCOCC3)c3cnn(CC(F)(F)F)c3n2)cc1 [Compound 729, 1-methyl-3-{4-[4-morpholin-4-yl-1-(2,2,2-trifluoroethyl)-1H-pyrazolo[3,4-d]pyrimidin-6-yl]phenyl}urea]	6.22			
6.85	7.14	C=CCN1CCC(n2ncc3c(N4CCOCC4)nc(-c4ccc(NC(=O)NC)cc4)nc32)CC1 [Compound 799, 1-{4-[1-(1-allylpiperidin-4-yl)-4-morpholin-4-yl-1H-pyrazolo[3,4-d]pyrimidin-6-yl]phenyl}-3-methylurea]	6.29			
< 4.22	6.36	CNC(=O)Nc1ccc(-c2nc(N3CCOCC3)c3cnn(C4CCN(CC(=O)O)CC4)c3n2)cc1 [Compound 798, [4-(6-{4-[(methylcarbamoyl)amino]phenyl}-4-morpholin-4-yl-1H-pyrazolo[3,4-d]pyrimidin-1-yl)piperidin-1-yl]acetic acid]	< 4.22			
6.00	6.54	CNC(=O)Nc1ccc(-c2nc(N3CCOCC3)c3cnn(C4CCN(C(=O)COC)CC4)c3n2)cc1 [Example 474, 1-(4-{1-[1-(methoxyacetyl)piperidin-4-yl]-4-morpholin-4-yl-1H-pyrazolo[3,4-d]pyrimidin-6-yl}phenyl)-3-methylurea]	5.85			
7.60	7.42	CC(C)C(=O)N1CCC(n2ncc3c(N4CCOCC4)nc(-c4ccc(NC(=O)Nc5ccncc5)cc4)nc32)CC1 [Compound 829, 1-{4-[1-(1-isobutyrylpiperidin-4-yl)-4-morpholin-4-yl-1H-pyrazolo[3,4-d]pyrimidin-6-yl]phenyl}-3-pyridin-4-ylurea]	7.54			
7.02	7.14	CNC(=O)Nc1ccc(-c2nc(N3CCOCC3)c3cnn(C4CCN(Cc5cncc(Br)c5)CC4)c3n2)cc1 [Example 393, 1-[4-(1-{1-[(5-bromopyridin-3-yl)methyl]piperidin-4-yl}-4-morpholin-4-yl-1H-pyrazolo[3,4-d]pyrimidin-6-yl)phenyl]-3-methylurea]	6.22			
8.41	7.92	O=C(Nc1ccc(-c2nc(N3CCOCC3)c3cnn(C4CCN(C(=O)OCCF)CC4)c3n2)cc1)Nc1cccnc1 [Compound 879, 2-fluoroethyl 4-(4-morpholin-4-yl-6-{4-[(pyridin-3-ylcarbamoyl)amino]phenyl}-1H-pyrazolo[3,4-d]pyrimidin-1-yl)piperidine-1-carboxylate]	7.47			
5.92	5.15	COC(=O)N1CCC(n2ncc3c(N4CCOCC4)nc(-c4ccc(NC(=O)OCCCO)cc4)nc32)CC1 [Compound 909, methyl 4-[6-(4-{[(3-hydroxypropoxy)carbonyl]amino}phenyl)-4-morpholin-4-yl-1H-pyrazolo[3,4-d]pyrimidin-1-yl]piperidine-1-carboxylate]	< 4.22			
5.01	5.72	COC(=O)N1CCC(n2ncc3c(N4CCOCC4)nc(-c4ccc(N/C(=N/C#N)Oc5ccccc5)cc4)nc32)CC1 [Compound 949, methyl 4-[6-(4-{[(Z)-(cyanoimino)(phenoxy)methyl]amino}phenyl)-4-morpholin-4-yl-1H-pyrazolo[3,4-d]pyrimidin-1-yl]piperidine-1-carboxylate]	4.60			
	7.72	O=C(Nc1ccncc1)Nc1ccc(-c2nc(N3CCOCC3)c3cnn(C4CCN(C(=O)c5ccccc5)CC4)c3n2)cc1 [Compound 629, 1-{4-[1-(1-benzoylpiperidin-4-yl)-4-morpholin-4-yl-1H-pyrazolo[3,4-d]pyrimidin-6-yl]phenyl}-3-pyridin-4-ylurea]			7.38	7.15
7.55	7.89	O=C(Nc1ccncc1)Nc1ccc(-c2nc(N3CCOCC3)c3cnn(C4CCN(Cc5cccnc5)CC4)c3n2)cc1 [Example 340, 1-(4-{4-morpholin-4-yl-1-[1-(pyridin-3-ylmethyl)piperidin-4-yl]-1H-pyrazolo[3,4-d]pyrimidin-6-yl}phenyl)-3-pyridin-4-ylurea]	7.00			
5.62	6.16	CCNC(=S)N1CCC(n2ncc3c(N4CCOCC4)nc(-c4ccc(NC(=O)OC)cc4)nc32)CC1 [Compound 812, methyl [4-(1-{1-[(ethylamino)carbonothioyl]piperidin-4-yl}-4-morpholin-4-yl-1H-pyrazolo[3,4-d]pyrimidin-6-yl)phenyl]carbamate]	5.52			
5.02	6.28	c1ccc(CN2CCC(n3ncc4c(N5CCOCC5)nc(-c5cccc6cc[nH]c56)nc43)CC2)cc1 [Example 72]	5.22			
